Measurements: PMC12615753, “Glutathione as a taste modulator: molecular mechanisms of interaction with umami and sweet taste receptors” (Food Chemistry: Molecular Sciences, 2025)

Molecular target: T1, hTAS1R1 Q278Y/rTAS1R3 (Homo sapiens, UniProt Q7RTX1, Q278Y)
T1 construct: expressed in transfected cells; host or cells: HEK293T/17 (ATCC CRL-11268)
T1 sequence (Q7RTX1 21-841 Q278Y): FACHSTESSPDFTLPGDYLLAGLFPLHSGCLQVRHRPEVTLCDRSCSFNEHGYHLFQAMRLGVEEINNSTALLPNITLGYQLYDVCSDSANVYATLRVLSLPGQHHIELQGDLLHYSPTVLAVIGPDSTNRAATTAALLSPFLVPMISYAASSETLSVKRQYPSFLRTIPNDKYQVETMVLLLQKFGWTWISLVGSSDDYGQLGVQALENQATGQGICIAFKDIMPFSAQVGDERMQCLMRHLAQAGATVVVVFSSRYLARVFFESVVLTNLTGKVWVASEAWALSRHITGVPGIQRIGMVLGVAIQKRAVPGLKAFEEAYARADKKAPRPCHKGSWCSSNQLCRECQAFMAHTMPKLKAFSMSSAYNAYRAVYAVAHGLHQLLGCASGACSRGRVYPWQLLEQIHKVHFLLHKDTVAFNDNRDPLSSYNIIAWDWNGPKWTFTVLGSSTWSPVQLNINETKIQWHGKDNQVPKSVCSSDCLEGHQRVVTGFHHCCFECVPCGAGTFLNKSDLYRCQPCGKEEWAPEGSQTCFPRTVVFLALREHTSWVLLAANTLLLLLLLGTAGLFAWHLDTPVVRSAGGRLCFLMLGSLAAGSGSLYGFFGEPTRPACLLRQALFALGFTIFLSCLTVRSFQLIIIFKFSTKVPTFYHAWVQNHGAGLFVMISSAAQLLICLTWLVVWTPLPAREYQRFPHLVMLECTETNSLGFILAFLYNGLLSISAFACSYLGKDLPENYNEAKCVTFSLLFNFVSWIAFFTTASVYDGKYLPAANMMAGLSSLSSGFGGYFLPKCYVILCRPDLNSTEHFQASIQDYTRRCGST
T1 sequence (Q923K1 21-858 partner): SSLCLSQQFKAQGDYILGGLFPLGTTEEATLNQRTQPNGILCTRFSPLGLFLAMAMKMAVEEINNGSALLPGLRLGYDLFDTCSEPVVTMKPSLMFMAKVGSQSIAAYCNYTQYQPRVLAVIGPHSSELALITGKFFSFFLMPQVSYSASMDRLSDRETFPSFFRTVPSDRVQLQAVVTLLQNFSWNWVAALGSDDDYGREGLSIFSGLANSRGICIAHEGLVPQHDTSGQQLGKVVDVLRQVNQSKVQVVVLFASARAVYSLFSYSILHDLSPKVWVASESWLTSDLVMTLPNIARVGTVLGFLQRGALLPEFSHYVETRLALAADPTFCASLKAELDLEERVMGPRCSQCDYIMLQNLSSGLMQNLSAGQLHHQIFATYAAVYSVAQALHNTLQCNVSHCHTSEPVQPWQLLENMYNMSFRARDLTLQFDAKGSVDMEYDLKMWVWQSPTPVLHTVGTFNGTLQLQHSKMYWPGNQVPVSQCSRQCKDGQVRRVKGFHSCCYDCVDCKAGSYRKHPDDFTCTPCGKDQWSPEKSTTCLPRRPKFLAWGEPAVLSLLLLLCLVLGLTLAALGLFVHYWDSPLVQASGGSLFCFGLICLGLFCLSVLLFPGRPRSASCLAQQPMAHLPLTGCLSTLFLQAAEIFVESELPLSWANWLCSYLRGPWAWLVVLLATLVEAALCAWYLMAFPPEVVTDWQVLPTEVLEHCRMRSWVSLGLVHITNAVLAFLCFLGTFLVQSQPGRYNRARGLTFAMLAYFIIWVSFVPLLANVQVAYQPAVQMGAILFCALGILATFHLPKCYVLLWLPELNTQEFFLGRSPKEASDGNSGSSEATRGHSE
Assay: Calcium assay, hTAS1R1 mutant co-expressed with rTAS1R3
Assay type: cell-based, rat
Excerpt: Chimeric Gα proteins, such as Gα16Gust44, Gα16Gi3 or Gα15i2, are widely used in the functional expression of TAS1R receptors ([Backes et al., 2015]; [Suess et al., 2015]; [Toda et al., 2021], [Toda et al., 2013], [Toda et al., 2018]; [Zhang et al., 2008]). Chimeric Gα15i2 (([Toda et al., 2013]), Supplementary data) was generated by replacing the last five residues of the C-terminal tail of rat Gα15i2 (EINLL) (UniProt number G3V6N8; https://www.uniprot.org/uniprot/) with the counterpart sequence from human GNAI2 (DCGLF) (UniProt number P04899-1) and cloning into the pcDNA3.1/Hygro vector (Invitrogen, Thermo Fisher Scientific, Illkirch, France) between the HindIII and NotI restriction sites, resulting in the plasmid pcDNA3.1-Gα15i2. Chimeric Gα16Gust44 construct have already been reported ([Raliou et al., 2011]). Briefly, Gα16Gust44 was generated by replacing the C-terminal of Gα16 with the C-terminal 44 residues of gustducin. As previously described, hTAS1R1 was amplified from human fungiform papillae cDNA and cloned and inserted into pcDNA3 (Invitrogen), generating pcDNA3-TAS1R1-WT (wild-type) ([Raliou et al., 2011]). […] The cDNA coding region of rTAS1R3 was synthesized with optimized-codon usage for human expression (Genewiz) and was cloned and inserted into the mammalian pcDNA4/myc-HisA (Invitrogen) expression vector between the EcoRI and NotI restriction sites, resulting in the plasmid pcDNA4-rTAS1R3. […] The sequence integrity of all the plasmid constructs was verified via automated DNA sequencing (Genewiz).
The hTAS1R1 mutants were co-expressed with the rTAS1R3 subunit in HEK293 cells. […] As a control, the functionality of the mutated receptors was checked after stimulation with S807 (Fig. S8), which interacts with TAS1R1-TMD ([Zhang et al., 2008]).

SMILES	EC50	effect of the added compound (1 mM) on the response to L-Glu (Q278Y)	Max ∆F/F0 (Q278Y, GSH)	R1 = mutant EC50/WT EC50 (Q278Y, GSH)	response to the agonist alone, vs WT (Q278Y)
N[C@@H](CCC(=O)N[C@@H](CS)C(=O)NCC(=O)O)C(=O)O [GSH, γ-L-glutamyl-L-cysteinyl-glycine]	3.96 ± 1.76 mM	synergy was observed	0.47 ± 0.07	1.6	
CCCC(CCC)NC(=O)c1ccc2c(c1)OCO2 [S807, N-(heptan-4-yl)benzo[d][1,3]dioxole-5-carboxamide, reference compound]					strongly affected
